# Columns and labels:
# [1] = system: PLZF-retinoic acid receptor-α bone marrow leukaemic cells; experiment: Proliferation (3H-thymidine incorporation) of PLZF-RARα bone marrow leukaemic cells; format: cell-based, mouse
# Experimental: (§1) Myeloid differentiation was evaluated by performing the nitroblue tetrazolium (NBT) assay, and cell proliferation by measuring DNA synthesis quantitating incorporation of ^3 H-thymidine.
# (§2) Differentiation was evaluated performing the nitroblue tetrazolium (NBT) assay and morphological differential count^32. Proliferation of bone marrow cells was evaluated by measuring DNA synthesis quantitating incorporation of ^3 H-thymidine (Amersham). Bone marrow cells were plated at a density of 2×10^6 cells/ml and were pulsed with ^3 H-thymidine at a final concentration of […].
# [2] = system: acute promyelocytic leukemia; format: in vivo, human; conditions: Jan. `98 (first line)
# From the text: The patient used for clinical study is a person who was diagnosed with acute promyelocytic leukemia in 1994.
# NB4 cells [3] = experiment: NB4 cell proliferation (3H-thymidine incorporation); format: cell-based, human
# Experimental: (§3) NB4 cells, a line that stably carries the PML/RAR-α fusion protein of acute promyelocytic leukemia^71, were maintained in RPMI1640 medium, which was supplemented with 10% fetal bovine serum and 1% of penicillin-streptomycin, at 37° C. in 5% CO2 atmosphere. Cultures were established at an initial density of 10^5 cells/ml in the presence or absence of drugs at various concentrations. Cellular proliferation was measured by assessment of ^3 H-thymidine incorporation. Aliquots (180 μl) from each culture were placed into 96-well plates in triplicate after 20 hrs of incubation, and 0.5 μCi of ^3 H-thymidine in 20 μl of medium was added to each well. […] The proportion of cells undergoing apoptosis was determined by Annexin V staining^72. Aliquots (1 ml) from each culture were harvested after 48 hrs incubation and the cells were stained with fluorescein isothiocyanate (FITC)-conjugated Annexin V and propidium iodide, according to the manufacturer's instructions (PharMingen, San Diego, Calif.). Annexin V and propidium iodide positivity were analyzed by flow cytometry (Becton-Dickinson, Mountainview, Calif.). Cell viability was measured after 4 days of incubation by using trypan blue exclusion. Cellular differentiation was evaluated at day 4 of incubation using both an assay for nitroblue tetrazolium (NBT) reduction and expression of CD11b (a cell surface differentiation antigen)^73. Briefly, 10^6 cells were harvested and incubated with 0.1% NBT solution in the presence of 12-o-tetradecanoylphorbol 13-acetate (TPA) (0.1 μg/ml) for 1 hr. The pellet of the mixture was then resuspended with 0.04 M HCl/10% SDS and kept at room temperature for 24 hrs. […] For CD11b expression, 10^6 cells were incubated with FITC-conjugated CD11b monoclonal antibody (PharMingen). A FITC-conjugated isotype was used as background control. Expression of CD11b, including percentage of positive cells and the fluorescence intensity, was determined by using flow cytometry (Becton Dickinson).
# NB4 cells [4] = experiment: NB4 cell apoptosis (Annexin V flow cytometry); format: cell-based, human
# Experimental: as §3
# [5] = Plasma concentrations of phenylbutyrate during clinical infusion; format: in vivo, human
# From the text: During the post-remission treatment course, blood specimens collected on heparin were serially obtained before and 2, 4, and 6 hrs following a 2-hour infusion of phenylbutyrate for determination of histone acetylation levels in leukocytes.
# [6] = system: myelodysplasia, myeloid leukemia and solid tumors; conditions: human, in vivo; cited from earlier work
# [7] = system: acetylated histones H3 and H4; experiment: Histone hyperacetylation in patient's blood and bone marrow mononuclear cells (Western, immunofluorescence); format: in vivo, human
# Experimental: Hyperacetylation was detected using antiacetylated H3 or H4 antibodies reacting with histones that were acid-extracted from nucleated cells in peripheral blood before (lane 1) and 2, 4 and 6 hours (lanes 2 to 4) after initiation of the phenylbutyrate infusion, and from bone marrow before (lane 5) and after (lane 6) completion of the infusion. The parallel gel stained with Coomassie blue is a loading control.
# Mononuclear cells from the patient's blood and bone marrow were isolated by density centrifugation and were applied on slides by cytospin. The slides were fixed in 95% ethanol/5% acetic acid for 1 min, permeabilized and blocked in 10% goat serum/1% BSA/0.3% Triton X-100/PBS for 40 min. The slides were then incubated with anti-acetylated histone H4 antibody (Upstate Biotechnology, Inc., Lake Placid, N.Y.) for 1 hr. A Texas-red-conjugated IgG was used as a secondary antibody to reveal the positivity; staining with 4',6-diamidino-2-phenylindole (DAPI) was used to reveal nuclei.
# Nuclei from separated blood and bone marrow mononuclear cells were isolated by lysis in buffer containing 10 mM Tris-HCl pH 6.5, 50 mM sodium bisulfite, 1% Triton X-100, 10 mM MgCl2, 8.6% sucrose and Dounce homogenization. Histones were isolated by acid extraction^74. Isolated histones ([…]) were then separated on 15% SDS-PAGE minigels (Bio-Rad, Hercules, Calif.) and transferred to nitrocellulose (Schleicher and Schuell, Keene, N.H.). Hyperacetylated histones were detected by antibodies that specifically recognize the hyperacetylated forms of histone H4 and histone H3 (Upstate Biotechnology) and were visualized by chemiluminescence (Pierce, Rockford, Ill.). As a control for the amount of protein loading, parallel gels were stained with Coomassie blue.
# NB4 cells [8] = experiment: NB4 cell viability (trypan blue exclusion); format: cell-based, human; conditions: phenylbutyrate 10 mM, 4 days of culture
# Experimental: NB4 cells, a line that stably carries the PML/RAR-α fusion protein of acute promyelocytic leukemia^71, were maintained in RPMI1640 medium, which was supplemented with 10% fetal bovine serum and 1% of penicillin-streptomycin, at 37° C. in 5% CO2 atmosphere. Cultures were established at an initial density of 10^5 cells/ml in the presence or absence of drugs at various concentrations. Cellular proliferation was measured by assessment of ^3 H-thymidine incorporation. Aliquots (180 μl) from each culture were placed into 96-well plates in triplicate after 20 hrs of incubation, and 0.5 μCi of ^3 H-thymidine in 20 μl of medium was added to each well. […] The proportion of cells undergoing apoptosis was determined by Annexin V staining^72. […] Annexin V and propidium iodide positivity were analyzed by flow cytometry (Becton-Dickinson, Mountainview, Calif.). Cell viability was measured after 4 days of incubation by using trypan blue exclusion. Cellular differentiation was evaluated at day 4 of incubation using both an assay for nitroblue tetrazolium (NBT) reduction and expression of CD11b (a cell surface differentiation antigen)^73. […] The optical density was measured at 540 nm. […] Expression of CD11b, including percentage of positive cells and the fluorescence intensity, was determined by using flow cytometry (Becton Dickinson).
# NB4 cells [9] = experiment: NB4 cell differentiation (CD11b expression and NBT reduction); format: cell-based, human
# Experimental: as §3
# [10] = system: PLZF-retinoic acid receptor-α bone marrow leukaemic cells; experiment: Myeloid differentiation (NBT assay) of PLZF-RARα bone marrow leukaemic cells; format: cell-based, mouse; conditions: Trichostatin A alone (5 ng/ml)
# Experimental: as §1, §2
# [11] = system: PML-retinoic acid receptor-α; experiment: 3XRARE-Luc reporter transfection assay in 293T cells, PML-RARα; format: cell-based, human
# Experimental: (§4) The experiment was performed in medium reconstituted with serum not depleted of endogenous retinoids. Luciferase activity was measured in a scintillation counter and normalized with the internal β-galactosidase standard. […] Note that in panels A and B luciferase activity is expressed by different scales.
# (§5) Luciferase activity was normalized with the internal β-galactosidase standard. Values represent the averages of two independent transfections.
# (§6) 293T cells and KG1 cells were transfected by calcium phosphate precipitation, and by electroporation as already described^25, and luciferase activity of each sample was normalized against internal control β-galactosidase activity^25.
# (§7) Nuclear receptor co-repressors form complexes with histone deacetylases (HDAC1 or 2), resulting in nucleosome assembly and transcriptional repression^15.
# [12] = system: PLZF-retinoic acid receptor-α; experiment: 3XRARE-Luc reporter transfection assay in 293T cells, PLZF-RARα; format: cell-based, human
# Experimental: as §4, §5, §6, §7
# [13] = Trichostatin A alone (not shown)
# [14] = retinoic acid 10^-6 M with Trichostatin A 150 nM, 36 hours
structure (smiles),measurement,setting,value
"CC1=C(/C=C/C(C)=C/C=C/C(C)=C/C(=O)O)C(C)(C)CCC1 [retinoic acid, all-trans-retinoic acid]",growth inhibition,[1]; retinoic acid 10^-7 M and 10^-6 M,little if no effects
same,growth inhibition,"[1]; retinoic acid 10^-7 M and 10^-6 M, listed as Retinoic acid",minimal
CC(=O)O[C@H]1C(=O)[C@@]2(C)[C@H]([C@H](OC(=O)c3ccccc3)[C@]3(O)C[C@H](OC(=O)[C@H](O)[C@@H](NC(=O)c4ccccc4)c4ccccc4)C(C)=C1C3(C)C)[C@]1(OC(C)=O)CO[C@@H]1C[C@@H]2O [Paclitaxel],Response,[2],Progression
"O=C(O)CCCc1ccccc1 [phenylbutyrate, sodium phenylbutyrate]",proliferation,NB4 cells [3]; phenylbutyrate 0.08 mM,no effect
same,proliferation,NB4 cells [3]; phenylbutyrate 0.4 mM,slight growth inhibition
same,proliferation,NB4 cells [3]; phenylbutyrate 2 mM,induced growth inhibition
same,proliferation,NB4 cells [3]; phenylbutyrate 10 mM,completely inhibited proliferation
same,apoptosis,NB4 cells [4]; phenylbutyrate 0.08 mM,no effect
same,apoptosis,NB4 cells [4]; phenylbutyrate 0.4 mM,no effects on other parameters
same,induction of apoptosis,"NB4 cells [4]; phenylbutyrate 2 mM, 2 days",15%
same,apoptosis,NB4 cells [4]; phenylbutyrate 10 mM,induced marked apoptosis
same,clinical achievability of concentration,[5]; 10 mM,not clinically achievable
same,Cmax,"[5]; human, plasma, 150 mg/kg, patient, intravenous infusion, read-out: peak plasma levels transiently attained after completing the drug infusion",~2000 µM
same,clinical usefulness,[6],has not been clinically useful
same,magnitude of hyperacetylation (Western analysis),[7]; 6 hours after starting the infusion,greatly diminished
same,acetylated histone H4 (immunofluorescence staining of nuclei),"[7]; peripheral blood cells, 6 hours after starting the infusion (approximately 4 hours after discontinuing the drug)",hyperacetylation was still visually evident
same,"percentage of positive staining cells and staining intensity, acetylated histone H4","[7]; peripheral blood mononuclear cells 0, 2, 4, 6 hours after infusion",progressively increases from baseline up to 6-hours
same,levels of acetylated H3 and H4 (Western blot),"[7]; peripheral blood mononuclear cells, two hours after beginning the phenylbutyrate infusion",markedly increased
same,viable cells,NB4 cells [8],no viable cells remained after 4 days of culture
same,differentiation,NB4 cells [9]; phenylbutyrate 0.08 mM,no effect
same,differentiation,NB4 cells [9]; phenylbutyrate 0.4 mM,no effects on other parameters
same,differentiation,NB4 cells [9]; phenylbutyrate 2 mM,little effect upon differentiation
CC(/C=C/C(=O)NO)=C\[C@@H](C)C(=O)c1ccc(N(C)C)cc1 [Trichostatin A],differentiation,[10],negligible differentiating effect
same,transcriptional effect,[11]; [13],negligible transcriptional effects
same,transactivation of reporter / reversal of transcriptional repression,[11]; [14],reverted the transcriptional repression
same,transcriptional effect,[12]; [13],negligible transcriptional effects
same,transactivation of reporter / reversal of transcriptional repression,[12]; [14],reverted the transcriptional repression
same,growth inhibition,[1]; Trichostatin A alone (5 ng/ml),marked growth inhibitory effect

# Reference: patent US6262116A, “Transcription therapy for cancers” (Sloan-Kettering Institute for Cancer Research, priority 1998, dated 2001)
